This is an account of results in PMC11393688, “Design and synthesis of new 1,2,4-oxadiazole/quinazoline-4-one hybrids with antiproliferative activity as multitargeted inhibitors” (Frontiers in Chemistry, 2024).

Molecules are shown by their SMILES.

Data set [1] concerns the target T1, BRAF^V600E (Homo sapiens, UniProt P15056, V600E).
T1 construct: Mouse full-length GST-tagged BRAFV600E; GST; purchased Invitrogen PV3849
Briefly: BRAF^V600E kinase inhibitory assay. The format is biochemical, Mouse. Particulars: read-out: BRAF^V600E inhibition IC50 ± SEM. The method, then:
Refer to Supplementary Appendix A for more details. […]
4.2.1.4. BRAF kinase assay […]
against BRAF. Mouse full-length GST-tagged BRAFV600E (7.5 ng, Invitrogen, PV3849) was pre-incubated with drug (1 µL) and assay dilution buffer (4 µL) for 60 min at 25 °C. In assay dilution buffer, a solution (5 µL) containing MgCl2 (30 mM), ATP (200 µM), recombinant human full length (200 ng) […] N-terminal His-tagged MEK1 (Invitrogen) was added to start the assay, subsequent to incubation for 25 min at 25 °C. The assay was stopped using 5X protein denaturing buffer (LDS) solution (5 µL). To further denature the protein, heat (70° C) was applied for 5 min.
10 µL of each reaction was loaded into the precast plates and electrophoresis was allowed to proceed. After completion of electrophoresis, the front part of the precast gel plate (holding hot ATP) was cut and afterwards cast-off. The dried gel was developed using a phosphor screen. A […]
served as positive control. […]
(FITC) and propidium iodide (PI) staining kit (BD Pharmingen, San Diego, USA). […]
4.3. Statistical analysis
Computerized Prism 5 program was used to statistically analyzed data using one-way ANOVA test followed by Tukey’s as post ANOVA for multiple comparison at P ≤.05. Data were presented

Data set [2] relates to colon cancer (HT-29) cell line. Nature of the data set: Antiproliferative MTT assay, HT-29. The format is cell-based. Particulars: Homo sapiens, HT-29 colon cancer cells, read-out: Antiproliferative activity IC50 ± SEM HT-29. A general note: Formazan colour is commonly taken as a measure of viable cells.
In data set [3] the test system is breast cancer (MCF-7) cell line. Nature of the data set: Antiproliferative MTT assay, MCF-7. In kind it is cell-based. The conditions noted are these: Homo sapiens, MCF7, MCF-7 breast cancer cells, read-out: Antiproliferative activity IC50 ± SEM MCF-7. On the procedure: (§1) 4.2.1.2. Assay for antiproliferative effect
(§2) To explore the antiproliferative potential of compounds MTT assay was performed according to previously reported procedure using different cell lines to explore the antiproliferative potential of […]
(§3) calculate the total nuclear DNA, a fluorescent dye (propidium iodide, PI) is used which can attach to the DNA, thus offering a quick and precise technique. PI cannot pass through the cell membrane and its signal intensity can be considered as directly proportional to quantity of cellular DNA.
(§4) Cells whose cell membranes are damaged or have changed permeability are counted as dead ones.
(§5) The assay was performed by seeding the cells of different cell lines at a density of 3000-7500 cells/well (in 200µl medium) in culture plates followed by incubation for 24h at 37 °C in humidified 5% CO2/95% air atmospheric conditions. The medium was removed; the compounds were added to the plates at 10 µM concentrations (in 0.1% DMSO) in triplicates, followed by incubation for 48 h. DMSO (0.1%) was used as control. After incubation, medium was removed […]
(§6) 80 °C, the plates were allowed to freeze for 24 h, followed by thawing at 25 °C. […]
(§7) (Polar-Star BMG Tech) was used to record the readings at excitation and emission wavelengths of 530 and 620 nm for each well. The percentage cytotoxicity of compounds was calculated using […]
(§8) Where ATC= Absorbance of treated cells and AC= Absorbance of control. Erlotinib was used as positive control in the assay.

In data set [4] the test system is pancreatic cancer (Panc-1) cell line. Nature of the data set: Antiproliferative MTT assay, Panc-1. In kind it is cell-based. Particulars: Homo sapiens, Panc-1 pancreatic cancer cells, read-out: Antiproliferative activity IC50 ± SEM Panc-1. The method, then: as §1, §2, §3, §4, §5, §6, §7, §8
Data set [5] has as its system four human cancer cell lines (HT-29, Panc-1, A-549, MCF-7). Briefly: Average antiproliferative activity (GI50) over four cancer cell lines. Particulars: average IC50 against the four cancer cell lines. The format is cell-based. On the procedure: as §1, §2, §3, §4, §5, §6, §7, §8
Another data set concerns the target EGFR^T790M (Homo sapiens, UniProt P00533, T790M). Nature of the data set: EGFR^T790M inhibitory assay (HTRF KinEASE-TK).
For data set [6], the system named is lung cancer (A-549) cell line. Nature of the data set: Antiproliferative MTT assay, A-549. The format is cell-based. The conditions noted are these: Homo sapiens, A549, A-549 lung cancer cells, read-out: Antiproliferative activity IC50 ± SEM A-549. The method, then: as §1, §2, §3, §4, §5, §6, §7, §8
Data set [7] has as its target T2, EGFR (Homo sapiens, UniProt P00533).
T2 construct: amino acids 645–1186; His6 (N); made in house; host or cells: Sf-9 insect cells (baculovirus; pBlueBacHis2B / pFASTBacHTc)
Nature of the data set: EGFR-TK inhibitory assay. In kind it is biochemical. Particulars: read-out: EGFR inhibition IC50 ± SEM. The method, then: 4.2.1.3. EGFR inhibitory assay
Sf-9 cells were infected for 72h for protein expression. […]
centrifugation for 20 min.
Histidine-linked proteins were first eluted with 250 and then […]
using wash buffer. Europium-tagged antiphosphotyrosine antibody (75 µL, 400 ng) was added to each well followed by incubation of 1h and then washing of the plates using buffer. The enhancement solution was added to each well and the signal was recorded at excitation and […]
The autophosphorylation percentage inhibition by compounds was calculated using the following equation: […]
(1 picture or pasted object on this page, not shown here)

Data set [8] is described as follows: Cell viability, MTT test on normal cell line. Particulars: human, MCF-10A mammary gland epithelial cells (normal cell line), MCF-10A normal cells, 4 days incubation. The format is cell-based. On the procedure: The human mammary gland epithelial (MCF-10A) normal cell line was used to test the viability of novel compounds 9a-o ([Mahmoud et al., 2022]; [Mekheimer et al., 2022]). After 4 days of incubation on MCF-10A cells, the cell viability of compounds 9a-o was determined using the MTT test.
The human mammary gland epithelial (MCF-10A) normal cell line was used to test the viability of compounds 9a-o ([Mahmoud et al., 2022]; [Mekheimer et al., 2022]). Refer to Supplementary Appendix A (Supplementary Material) for more details.
4.2. Biological evaluation
4.2.1. Cytotoxic activity using MTT Assay and evaluation of IC50
MTT assay was carried out to study the effect of compounds on mammary epithelial cells (MCF-10A). The medium in which cells were propagated contained Dulbecco's modified Eagle's medium (DMEM)/ Ham's F-12 medium (1:1) supplemented with epidermal growth factor (20 ng/mL), hydrocortisone (500 ng/mL), insulin (10 μg/mL), 2 mM glutamine and 10% foetal calf serum.
After every 2-3 days, the cells were passaged using trypsin ethylenediamine tetra acetic acid (EDTA). The cells were seeded at a density of 10^4 cells mL-1 in flat-bottomed culture plates containing 96 wells each. After 24 h, medium was removed from the plates and the compounds in (in 0.1% DMSO) were added (in 200 μL medium to yield a final concentration of 0.1% v/v) to the wells of plates. A single compound was designated with four wells followed by incubation of plates for 96h at 37°C. After incubation, medium was removed completely from the plates followed by addition of MTT (0.4 mg/mL in medium) to each well and subsequent incubation of plates for 3h. MTT (along with the medium) was removed and DMSO (150μL) was added to each well of the culture plates, followed by vertexing and subsequent measurement of absorbance (at 540 nm) using microplate reader. The data are shown as percentage inhibition of proliferation in comparison with controls containing 0.1% DMSO.

Data set [9] relates to various cancer cell lines. Set-up: method as in Hisham et al., 2022; Hisham et al., 2023. The conditions noted are these: ref Hisham et al., 2022, 2023; cited from earlier work.
In data set [10] the test system is BRAF^V600E. The arrangement: method as in Hisham et al., 2022; Hisham et al., 2023. The conditions noted are these: ref Hisham et al., 2022, 2023, read-out: IC50 against BRAF^V600E; cited from earlier work.
In a further data set the test system is wild-type BRAF. The arrangement: method as in Okaniwa et al., 2012; Zhang et al., 2013. Particulars: ref Okaniwa et al., 2012; Zhang et al., 2013; cited from earlier work.
Data set [11] has as its target T2, EGFR. Set-up: method as in Okaniwa et al., 2012; Zhang et al., 2013. Particulars: ref Okaniwa et al., 2012; Zhang et al., 2013; cited from earlier work.

T2 sequence (P00533 669-1210): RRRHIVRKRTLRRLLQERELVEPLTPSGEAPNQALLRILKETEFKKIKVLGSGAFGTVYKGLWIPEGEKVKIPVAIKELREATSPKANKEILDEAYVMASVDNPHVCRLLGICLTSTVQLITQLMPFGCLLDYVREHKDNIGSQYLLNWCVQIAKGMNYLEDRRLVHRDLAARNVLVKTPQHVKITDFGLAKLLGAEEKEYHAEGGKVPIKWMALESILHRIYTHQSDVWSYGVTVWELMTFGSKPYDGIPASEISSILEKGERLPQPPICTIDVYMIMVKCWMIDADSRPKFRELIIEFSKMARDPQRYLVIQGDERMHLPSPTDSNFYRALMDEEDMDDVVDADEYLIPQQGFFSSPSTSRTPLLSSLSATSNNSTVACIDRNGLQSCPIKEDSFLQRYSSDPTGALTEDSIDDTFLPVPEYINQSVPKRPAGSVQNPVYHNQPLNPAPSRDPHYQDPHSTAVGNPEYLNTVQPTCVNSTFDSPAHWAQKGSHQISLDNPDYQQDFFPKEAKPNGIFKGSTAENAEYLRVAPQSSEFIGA
T1 sequence (P15056 2-766 V600E limits assumed): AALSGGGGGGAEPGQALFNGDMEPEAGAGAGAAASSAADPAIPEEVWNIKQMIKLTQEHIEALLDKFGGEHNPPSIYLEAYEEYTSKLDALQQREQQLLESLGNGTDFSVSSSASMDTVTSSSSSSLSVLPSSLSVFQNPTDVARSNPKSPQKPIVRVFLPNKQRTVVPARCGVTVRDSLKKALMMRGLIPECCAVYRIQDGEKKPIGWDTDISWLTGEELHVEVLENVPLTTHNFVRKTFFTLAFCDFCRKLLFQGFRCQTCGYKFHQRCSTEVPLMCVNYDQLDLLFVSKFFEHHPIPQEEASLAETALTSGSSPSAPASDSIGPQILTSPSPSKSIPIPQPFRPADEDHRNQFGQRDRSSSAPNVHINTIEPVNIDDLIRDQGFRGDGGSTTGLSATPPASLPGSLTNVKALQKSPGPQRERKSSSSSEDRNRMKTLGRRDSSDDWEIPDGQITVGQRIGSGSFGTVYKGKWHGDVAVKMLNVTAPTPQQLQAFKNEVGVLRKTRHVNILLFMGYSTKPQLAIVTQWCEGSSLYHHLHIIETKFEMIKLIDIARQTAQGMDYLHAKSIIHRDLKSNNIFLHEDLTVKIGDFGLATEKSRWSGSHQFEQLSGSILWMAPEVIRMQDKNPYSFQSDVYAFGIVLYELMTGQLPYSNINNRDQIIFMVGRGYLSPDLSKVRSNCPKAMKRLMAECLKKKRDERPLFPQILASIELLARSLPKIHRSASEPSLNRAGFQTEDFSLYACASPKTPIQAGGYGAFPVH
Sequence of EGFR^T790M (P00533 25-1210 T790M): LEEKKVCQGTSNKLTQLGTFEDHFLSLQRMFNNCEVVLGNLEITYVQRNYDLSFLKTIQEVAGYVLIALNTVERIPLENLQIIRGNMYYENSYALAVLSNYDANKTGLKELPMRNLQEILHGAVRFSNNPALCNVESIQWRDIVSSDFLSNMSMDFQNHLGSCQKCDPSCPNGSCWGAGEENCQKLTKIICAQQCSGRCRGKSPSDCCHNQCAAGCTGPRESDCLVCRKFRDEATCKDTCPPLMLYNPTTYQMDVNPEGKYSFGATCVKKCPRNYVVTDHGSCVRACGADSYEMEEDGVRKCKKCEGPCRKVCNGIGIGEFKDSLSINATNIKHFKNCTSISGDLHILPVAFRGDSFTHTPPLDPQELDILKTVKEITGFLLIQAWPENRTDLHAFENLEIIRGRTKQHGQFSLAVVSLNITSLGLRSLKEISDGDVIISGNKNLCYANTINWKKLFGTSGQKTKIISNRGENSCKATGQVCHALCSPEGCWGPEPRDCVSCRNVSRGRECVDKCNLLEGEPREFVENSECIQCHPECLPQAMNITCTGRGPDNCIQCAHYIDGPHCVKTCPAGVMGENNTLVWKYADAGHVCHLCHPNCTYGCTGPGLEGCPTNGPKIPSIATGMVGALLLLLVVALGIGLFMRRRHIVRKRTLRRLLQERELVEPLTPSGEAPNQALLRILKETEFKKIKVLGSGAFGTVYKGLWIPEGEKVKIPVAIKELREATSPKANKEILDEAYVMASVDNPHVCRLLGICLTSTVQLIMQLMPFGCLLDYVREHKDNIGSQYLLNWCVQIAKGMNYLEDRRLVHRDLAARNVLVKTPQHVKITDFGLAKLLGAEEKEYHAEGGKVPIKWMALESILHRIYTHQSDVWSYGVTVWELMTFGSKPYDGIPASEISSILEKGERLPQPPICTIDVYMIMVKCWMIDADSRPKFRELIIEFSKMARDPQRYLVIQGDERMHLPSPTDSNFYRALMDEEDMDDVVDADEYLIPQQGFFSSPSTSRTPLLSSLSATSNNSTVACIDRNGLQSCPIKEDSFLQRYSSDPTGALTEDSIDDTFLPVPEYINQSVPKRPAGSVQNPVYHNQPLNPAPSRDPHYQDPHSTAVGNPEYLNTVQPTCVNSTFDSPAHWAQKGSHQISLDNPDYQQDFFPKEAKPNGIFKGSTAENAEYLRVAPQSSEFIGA

The IC50 is the concentration at which inhibition is half-maximal. In general, GI50 refers to the concentration giving 50% growth inhibition. Broadly, the melting point is the temperature of the solid-liquid transition. Usually viability stands for the share of living cells, or the viability signal relative to a control. Read a low viability as more harm to the cells. Turning to `COc1ccc(-c2noc(CSc3nc4ccccc4c(=O)n3-c3ccccc3)n2)cc1` [Compound 9c, 2-((3-(4-Methoxyphenyl)-1,2,4-oxadiazol-5-yl)methylthio)-3-phenylquinazolin-4(3H)-one], the melting point fell in the range of 186 to 188 °C. Further, the IC50 at BRAF^V600E [1] amounted to 51 ± 5 nM. Besides, in data set [2], the IC50 stood at 25 ± 2 nM. In data set [3], the IC50 was found to be 28 ± 3 nM. The IC50 in [4] amounted to 26 ± 2 nM. In data set [5], this compound yielded a GI50 of 26 nM. The compound further showed an IC50 at EGFR^T790M of 11 ± 2 nM. For the same compound, the IC50 in data set [6] came out at 24 ± 2 nM. Also, the IC50 on EGFR [7] is 64 ± 5 nM. In data set [8], this compound showed a viability at 96 h, 50 µM of 91%.
Regarding `Cc1cccc(-n2c(SCc3nc(-c4ccc(Cl)cc4)no3)nc3ccccc3c2=O)c1` [Compound 9h, 2-((3-(4-Chlorophenyl)-1,2,4-oxadiazol-5-yl)methylthio)-3-m-tolylquinazolin-4(3H)-one], the melting point is 178 to 180 °C. On BRAF^V600E [1], the IC50 stood at 57 ± 5 nM. Besides, the IC50 in [2] amounted to 30 ± 3 nM. Also, the IC50 in data set [3] came to 31 ± 3 nM. For the same compound, in data set [4], the IC50 is 29 ± 2 nM. For the same compound, in [5], the concentration for 50% growth inhibition (GI50) stood at 30 nM. The IC50 against EGFR^T790M turned out to be 15 ± 2 nM. Moreover, in [6], the IC50 amounted to 28 ± 2 nM. The IC50 on EGFR [7] is 72 ± 5 nM. Further, the viability at 96 h, 50 µM in [8] was determined as 89%.
The compound `CCn1c(SCc2nc(-c3ccc(Cl)cc3)no2)nc2ccccc2c1=O` [Compound 9k, 2-((3-(4-Chlorophenyl)-1,2,4-oxadiazol-5-yl)methylthio)-3-ethylquinazolin-4(3H)-one] yielded a melting point of 118 to 120 °C. Further, the IC50 at BRAF^V600E [1] is 62 ± 5 nM. In addition, the IC50 in [2] turned out to be 34 ± 3 nM. In data set [3], the IC50 was determined as 35 ± 3 nM. In data set [4], the IC50 worked out at 34 ± 3 nM. This compound displayed a GI50 in data set [5] of 34 nM. Besides, the IC50 in data set [6] was 32 ± 3 nM. Also, the IC50 at EGFR [7] turned out to be 84 ± 6 nM. Moreover, the viability at 96 h, 50 µM in [8] is 93%.
On to `CCn1c(SCc2nc(-c3ccc(OC)cc3)no2)nc2ccccc2c1=O` [Compound 9l, 2-((3-(4-Methoxyphenyl)-1,2,4-oxadiazol-5-yl)methylthio)-3-ethylquinazolin-4(3H)-one], for which the melting point was in the range of 134 to 136 °C. The IC50 on BRAF^V600E [1] is 70 ± 5 nM. Further, the concentration for half-maximal inhibition (IC50) in data set [2] came out at 37 ± 3 nM. Besides, in data set [3], the IC50 turned out to be 40 ± 4 nM. For the same compound, in data set [4], the IC50 is 38 ± 3 nM. The compound also showed a concentration for 50% growth inhibition (GI50) in [5] of 38 nM. For the same compound, the IC50 in data set [6] was 36 ± 3 nM. On EGFR [7], the IC50 was found to be 91 ± 7 nM. In addition, in data set [8], the viability at 96 h, 50 µM was determined as 90%.
Take `COc1cccc2c1C(=O)c1c(O)c3c(c(O)c1C2=O)C[C@@](O)(C(=O)CO)C[C@@H]3O[C@H]1C[C@H](N)[C@H](O)[C@H](C)O1` [Doxorubicin]: in data set [9], the GI50 is 1140 nM.
`C=CCn1c(SCC(=O)Nc2cccc(C(=O)/C=C/c3ccc(OC)cc3)c2)nc2ccccc2c1=O` [IX]: the IC50 in the data set on BRAF^V600E [10] is 650 nM. In addition, in [9], the GI50 was 1160 nM.
On to `COc1cc2ncnc(Nc3cccc(NC(=O)Nc4ccc(Cl)c(C(F)(F)F)c4)c3)c2cc1OCCCN1CCOCC1` [I], for which, in the data set with wild-type BRAF, the “IC50 against wild-type BRAF” value is listed as “nanomolar range”. Also, the “IC50 against EGFR” value on EGFR [11] is “nanomolar range”.
